Measurements published in US8722849B2, “Polypeptides” (Novo Nordisk A/S, priority 2011, dated 2014).
Converted amounts (≈) assume the structure as drawn. Where two headings read alike, the source gives them in different places. Starred links: 1 amine or outer side, 2 acyl side, 3 side chain; linkers in the order of their positions; H or OH if unused. Positions of bridges follow the written chain, without caps; N, C: chain ends. Residues, ends and D or L forms follow the SMILES beside them. *: point of attachment. C20 diacid = O=C(O)CCCCCCCCCCCCCCCCCCC(=O)*; γGlu = O=C(O)[C@H](CCC(=O)[*:2])N[*:1]

Columns and labels:
[1] = molecular target: T1, human amylin receptor (amylin 3(a) receptor: human calcitonin receptor + RAMP-3) (Homo sapiens, UniProt O60896+P30988); experiment: Assay (II)a functional CRE-luciferase assay, human amylin receptor; assay type: cell-based
T1 construct: expressed in transfected cells; host or cells: BHK570
T1 sequence (P30988 25-474): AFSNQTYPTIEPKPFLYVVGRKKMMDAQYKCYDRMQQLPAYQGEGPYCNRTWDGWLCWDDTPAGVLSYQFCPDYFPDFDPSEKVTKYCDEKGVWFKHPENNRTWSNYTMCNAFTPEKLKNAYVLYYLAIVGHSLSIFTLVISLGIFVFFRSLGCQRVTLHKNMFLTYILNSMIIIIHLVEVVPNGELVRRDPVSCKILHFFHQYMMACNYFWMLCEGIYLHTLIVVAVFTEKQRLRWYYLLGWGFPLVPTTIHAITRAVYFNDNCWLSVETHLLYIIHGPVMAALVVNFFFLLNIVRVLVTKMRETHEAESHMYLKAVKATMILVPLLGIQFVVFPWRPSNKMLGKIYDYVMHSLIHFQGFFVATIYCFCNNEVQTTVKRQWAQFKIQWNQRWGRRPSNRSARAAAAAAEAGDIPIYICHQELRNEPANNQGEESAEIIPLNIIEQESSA
T1 sequence (O60896 24-148 partner): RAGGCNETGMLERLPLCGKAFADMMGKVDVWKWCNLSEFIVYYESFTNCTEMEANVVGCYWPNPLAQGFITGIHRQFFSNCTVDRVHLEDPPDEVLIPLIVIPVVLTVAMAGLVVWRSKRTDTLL

[2] = molecular target: T2, human calcitonin receptor (Homo sapiens, UniProt P30988); experiment: Assay (II)a functional CRE-luciferase assay, human calcitonin receptor; assay type: cell-based
T2 construct: expressed in transfected cells; host or cells: BHK570
T2 sequence (P30988 25-474): T1 sequence (P30988 25-474)

[3] = Assay (III) ThT fibrillation assay for physical stability; assay type: physicochemical; settings: ThT fibrillation assay
Method in brief: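 Freshly prepared formulations, pH-adjusted, with 1 μM ThT; four or eight replicates incubated at 37 °C under 960 rpm orbital shaking. Fluorescence (ex 444/em 485 nm) read every 20 min; […]. Peptide concentration measured by RP-HPLC before and after the run.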

[4] = Assay (IV) determination of solubility; assay type: physicochemical
Method in brief: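 Polypeptide in water (~500 nmol/ml stock) was mixed 1:1 with 100 mM buffers from pH 3.0 to 8.0 (glycylglycine pH 3.0–5.0; bistrispropane pH 6.0–8.0). After 18 hours at room temperature, samples were centrifuged and the polypeptide remaining in solution was quantified by HPLC.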

[5] = Table 2, BHK amylin 3(a)-receptor/CRE-luc cells
[6] = Table 7, human calcitonin (CTa) receptor
[7] = bistrispropane buffer, pH 6, pH 6.0, read-out: Solubility pH 6.0
[8] = bistrispropane buffer, pH 6.5, pH 6.5, read-out: Solubility pH 6.5
[9] = bistrispropane buffer, pH 7, pH 7.0, read-out: Solubility pH 7.0
[10] = bistrispropane buffer, pH 7.5, pH 7.5, read-out: Solubility pH 7.5
[11] = bistrispropane buffer, pH 8, pH 8.0, read-out: Solubility pH 8.0
[12] = glycylglycine buffer, pH 3, pH 3.0, read-out: Solubility pH 3.0
[13] = glycylglycine buffer, pH 4, pH 4.0, 18 hours at room temperature, Table 2, read-out: Solubility pH 4.0
[14] = glycylglycine buffer, pH 4, pH 4.0, read-out: Solubility pH 4.0
[15] = glycylglycine buffer, pH 5, pH 5.0, read-out: Solubility pH 5.0

Row | SMILES | EC50 [1, 5] | EC50 [2, 6] | ThT pH 4.0 lag time [3] | ThT pH 4.0 lag time (h) [3] | solubility at 18 h [4, 7] | solubility at 18 h [4, 8] | solubility at 18 h [4, 9] | solubility at 18 h [4, 10] | solubility at 18 h [4, 11] | solubility at 18 h [4, 12] | solubility at 18 h [4, 13] | solubility at 18 h [4, 14] | solubility at 18 h [4, 15] | EC50 ([1]; Table 11) | EC50 ([2]; Table 11, read-out: CTa receptor human EC50)
1 | CC[C@H](C)[C@H](NC(=O)[C@@H]1CCCN1C(=O)CNC(=O)[C@H](Cc1ccccc1)NC(=O)[C@H](CC(N)=O)NC(=O)[C@H](CC(N)=O)NC(=O)[C@H](CO)NC(=O)[C@H](CO)NC(=O)[C@H](Cc1c[nH]cn1)NC(=O)[C@H](Cc1c[nH]cn1)NC(=O)[C@H](CC(C)C)NC(=O)[C@H](Cc1ccccc1)NC(=O)[C@H](CCC(=O)O)NC(=O)[C@H](C)NC(=O)[C@H](CC(C)C)NC(=O)[C@H](CCCNC(=N)N)NC(=O)[C@H](CCC(N)=O)NC(=O)[C@@H](NC(=O)[C@H](C)NC(=O)[C@@H]1CSSC[C@H](NC(=O)[C@H](CCCCN)NC(=O)CC[C@H](NC(=O)CCCCCCCCCCCCCCCCCCC(=O)O)C(=O)O)C(=O)N[C@@H](CC(N)=O)C(=O)N[C@@H]([C@@H](C)O)C(=O)N[C@@H](C)C(=O)N[C@@H]([C@@H](C)O)C(=O)N1)[C@@H](C)O)C(=O)N[C@@H](CC(C)C)C(=O)N1CCC[C@H]1C(=O)N1CCC[C@H]1C(=O)N[C@H](C(=O)N[C@@H](CC(N)=O)C(=O)N[C@H](C(=O)NCC(=O)N[C@@H](CO)C(=O)N[C@@H](CC(N)=O)C(=O)N[C@@H](Cc1c[nH]cn1)C(=O)N[C@@H](Cc1ccc(O)cc1)C(N)=O)C(C)C)[C@@H](C)O [Example 114, N-alpha-[(S)-4-Carboxy-4-(19-carboxynonadecanoylamino)butyryl]-[Glu14,His17,His36]-pramlintide] ({C20 diacid-γGlu}-KCNTATCATQRLAEFLHHSSNNFGPILPPTNVGSNHY-NH2; disulfide 2-7 (inferred)) | 0.382 nM | 0.113 nM | >45 h | >45 h | > 200 µM | 73 µM (≈ 328 µg/mL) | 14 µM (≈ 62.9 µg/mL) | 31 µM (≈ 139 µg/mL) | 79 µM (≈ 355 µg/mL) | > 200 µM | > 200 µM | > 200 µM | > 200 µM |  | 
2 | CC[C@H](C)[C@H](NC(=O)[C@@H]1CCCN1C(=O)CNC(=O)[C@H](Cc1ccccc1)NC(=O)[C@H](CC(N)=O)NC(=O)[C@H](CC(N)=O)NC(=O)[C@H](CO)NC(=O)[C@H](CO)NC(=O)[C@H](Cc1c[nH]cn1)NC(=O)[C@H](Cc1c[nH]cn1)NC(=O)[C@H](CC(C)C)NC(=O)[C@H](Cc1ccccc1)NC(=O)[C@H](CCC(=O)O)NC(=O)[C@H](C)NC(=O)[C@H](CC(C)C)NC(=O)[C@H](CCCNC(=N)N)NC(=O)[C@H](CCC(N)=O)NC(=O)[C@@H](NC(=O)[C@H](C)NC(=O)[C@@H]1CSSC[C@H](NC(=O)[C@H](CCCCN)NC(=O)CC[C@H](NC(=O)CCCCCCCCCCCCCCCCCCC(=O)O)C(=O)O)C(=O)N[C@@H](CC(N)=O)C(=O)N[C@@H]([C@@H](C)O)C(=O)N[C@@H](C)C(=O)N[C@@H]([C@@H](C)O)C(=O)N1)[C@@H](C)O)C(=O)N[C@@H](CC(C)C)C(=O)N1CCC[C@H]1C(=O)N1CCC[C@H]1C(=O)N[C@H](C(=O)N[C@@H](CC(N)=O)C(=O)N[C@H](C(=O)NCC(=O)N[C@@H](Cc1c[nH]cn1)C(=O)N[C@@H](CC(N)=O)C(=O)N[C@H](C(=O)N[C@@H](Cc1ccc(O)cc1)C(N)=O)[C@@H](C)O)C(C)C)[C@@H](C)O [Example 115, N-alpha-[(S)-4-Carboxy-4-(19-carboxynonadecanoylamino)butyryl]-[Glu14,His17,His34]-pramlintide] ({C20 diacid-γGlu}-KCNTATCATQRLAEFLHHSSNNFGPILPPTNVGHNTY-NH2; disulfide 2-7 (inferred); C-terminus assumed) | 0.129 nM | 0.115 nM | >45 h | >45 h | > 200 µM | 73 µM (≈ 329 µg/mL) | 22 µM (≈ 99.1 µg/mL) | 46 µM (≈ 207 µg/mL) | 115 µM (≈ 518 µg/mL) | > 200 µM | > 200 µM | > 200 µM | > 200 µM |  | 
3 | CC[C@H](C)[C@H](NC(=O)[C@@H]1CCCN1C(=O)CNC(=O)[C@H](Cc1ccccc1)NC(=O)[C@H](CC(N)=O)NC(=O)[C@H](CC(N)=O)NC(=O)[C@H](CO)NC(=O)[C@H](CO)NC(=O)[C@H](Cc1c[nH]cn1)NC(=O)[C@H](Cc1c[nH]cn1)NC(=O)[C@H](CC(C)C)NC(=O)[C@H](Cc1ccccc1)NC(=O)[C@H](CCC(=O)O)NC(=O)[C@H](C)NC(=O)[C@H](CC(C)C)NC(=O)[C@H](CCCNC(=N)N)NC(=O)[C@H](CCC(N)=O)NC(=O)[C@@H](NC(=O)[C@H](C)NC(=O)[C@@H]1CSSC[C@H](NC(=O)[C@H](CCCCN)NC(=O)CC[C@H](NC(=O)CCCCCCCCCCCCCCCCCCC(=O)O)C(=O)O)C(=O)N[C@@H](CC(N)=O)C(=O)N[C@@H]([C@@H](C)O)C(=O)N[C@@H](C)C(=O)N[C@@H]([C@@H](C)O)C(=O)N1)[C@@H](C)O)C(=O)N[C@@H](CC(C)C)C(=O)N1CCC[C@H]1C(=O)N1CCC[C@H]1C(=O)N[C@H](C(=O)N[C@@H](CC(N)=O)C(=O)N[C@@H](Cc1c[nH]cn1)C(=O)NCC(=O)N[C@@H](CO)C(=O)N[C@@H](CC(N)=O)C(=O)N[C@H](C(=O)N[C@@H](Cc1ccc(O)cc1)C(N)=O)[C@@H](C)O)[C@@H](C)O [Example 116, N-alpha-[(S)-4-Carboxy-4-(19-carboxynonadecanoylamino)butyryl]-[Glu14,His17,His32]-pramlintide] ({C20 diacid-γGlu}-KCNTATCATQRLAEFLHHSSNNFGPILPPTNHGSNTY-NH2; disulfide 2-7 (inferred); C-terminus assumed) | 0.487 nM | 0.124 nM | >45 h | >45 h | > 200 µM | 120 µM (≈ 539 µg/mL) | 44 µM (≈ 198 µg/mL) | 79 µM (≈ 355 µg/mL) | 173 µM (≈ 777 µg/mL) | > 200 µM | > 200 µM | > 200 µM | > 200 µM |  | 
4 | CC[C@H](C)[C@H](NC(=O)[C@@H]1CCCN1C(=O)CNC(=O)[C@H](Cc1ccccc1)NC(=O)[C@H](CC(N)=O)NC(=O)[C@H](CC(N)=O)NC(=O)[C@H](CO)NC(=O)[C@H](CO)NC(=O)[C@H](Cc1c[nH]cn1)NC(=O)[C@@H](NC(=O)[C@H](CC(C)C)NC(=O)[C@H](Cc1ccccc1)NC(=O)[C@H](CC(N)=O)NC(=O)[C@H](C)NC(=O)[C@H](CC(C)C)NC(=O)[C@H](CCCNC(=N)N)NC(=O)[C@H](CCC(N)=O)NC(=O)[C@@H](NC(=O)[C@H](C)NC(=O)[C@@H]1CSSC[C@H](NC(=O)[C@H](CCC(=O)O)NC(=O)[C@H](CCCNC(=N)N)NC(=O)[C@H](CCC(=O)O)NC(=O)[C@H](CCC(=O)O)NC(=O)CCCCCCCCCCCCCCCCCCC(=O)O)C(=O)N[C@@H](CC(N)=O)C(=O)N[C@@H]([C@@H](C)O)C(=O)N[C@@H](C)C(=O)N[C@@H]([C@@H](C)O)C(=O)N1)[C@@H](C)O)C(C)C)C(=O)N[C@@H](CC(C)C)C(=O)N1CCC[C@H]1C(=O)N1CCC[C@H]1C(=O)N[C@H](C(=O)N[C@@H](CC(N)=O)C(=O)N[C@H](C(=O)NCC(=O)N[C@@H](CO)C(=O)N[C@@H](CC(N)=O)C(=O)N[C@H](C(=O)N1CCC[C@H]1C(N)=O)[C@@H](C)O)C(C)C)[C@@H](C)O [Example 121, N-alpha-(19-carboxynonadecanoyl)-Glu-Glu-Arg-[Glu1,Pro37]-pramlintide] ({C20 diacid}-EERECNTATCATQRLANFLVHSSNNFGPILPPTNVGSNTP-NH2; disulfide 5-10 (inferred); C-terminus assumed) |  |  |  | 0.3 h | 155 µM (≈ 717 µg/mL) | 127 µM (≈ 587 µg/mL) | 54 µM (≈ 250 µg/mL) | 157 µM (≈ 726 µg/mL) | 117 µM (≈ 541 µg/mL) | > 200 µM |  | > 200 µM | > 200 µM | 0.045 nM | 0.0615 nM
